# Test results reported in patent publication US10167262B2, “Herbicidal substituted 3-arylpyrazoles” (FMC CORPORATION, priority 2014, dated 2019).
# Like-named read-outs stand apart in the source and are kept apart here.
# Key:
# Assay in all cases: Test C pre-/postemergence greenhouse test, plant response rating 0-100
# Assay type in all cases: in vivo
# [1] = test system: pigweed (Amaranthus retroflexus); details: Amaranthus retroflexus, pre-emergence, Preemergence
# From the text: (§1) Seeds of plant species selected from blackgrass (Alopecurus myosuroides), Italian ryegrass (Lolium multiflorum), winter wheat (Triticum aestivum), galium (catchweed bedstraw, Galium aparine), corn (Zea mays), large (Lg) crabgrass (Digitaria sanguinalis), giant foxtail (Setaria faberii), johnsongrass (Sorghum halepense), lambsquarters (Chenopodium album), morningglory (Ipomoea coccinea), yellow nutsedge (Cyperus esculentus), pigweed (Amaranthus retroflexus), ragweed (common ragweed, Ambrosia elatior), soybean (Glycine max), barnyardgrass (Echinochloa crus-galli), oilseed rape (Brassica napus), waterhemp (common waterhemp, Amaranthus rudis), and velvetleaf (Abutilon theophrasti) were planted into a blend of loam soil and sand and treated preemergence with test chemicals formulated in a non-phytotoxic solvent mixture which included a surfactant.
# (§2) At the same time, plants selected from these crop and weed species and also winter barley (Hordeum vulgare), bermudagrass (Cynodon dactylon), downy bromegrass (Bromus tectorum), canarygrass (Phalaris minor), cocklebur (common cocklebur, Xanthium strumarium), woolly cupgrass (Eriochloa villosa), deadnettle (henbit deadnettle, Lamium amplexicaule), green foxtail (Setaria viridis), goosegrass (Eleusine indica), surinam grass (Brachiaria decumbens), windgrass (Apera spica-venti), chickweed (common chickweed, Stellaria media), kochia (Kochia scoparia), and wild oat (Avena fatua), were planted in pots containing Redi-Earth® planting medium (Scotts Company, 14111 Scottslawn Road, Marysville, Ohio 43041) comprising spaghnum peat moss, vermiculite, wetting agent and starter nutrients and treated with postemergence applications of test chemicals formulated in the same manner. Plants ranged in height from 2 to 18 cm (1- to 4-leaf stage) for postemergence treatments. Treated plants and controls were maintained in a greenhouse for 13 to 15 days, after which time all species were compared to controls and visually evaluated. Plant response ratings, summarized in Table C, are based on a scale of 0 to 100 where 0 is no effect and 100 is complete control. A dash (-) response means no test result.
# [2] = test system: johnsongrass (Sorghum halepense); details: Sorghum halepense; for pest or weed control at 62 g/ha: 62 g ai/ha; for pest or weed control at 125 g/ha: 125 g ai/ha; for pest or weed control at 250 g/ha: 250 g ai/ha; for pest or weed control at 500 g/ha: 500 g ai/ha
# From the text: as §1, §2
# [3] = test system: yellow nutsedge (Cyperus esculentus); details: Cyperus; for pest or weed control at 62 g/ha: 62 g ai/ha; for pest or weed control at 125 g/ha: 125 g ai/ha; for pest or weed control at 250 g/ha: 250 g ai/ha; for pest or weed control at 500 g/ha: 500 g ai/ha
# From the text: as §1, §2
# [4] = test system: lambsquarters (Chenopodium album); details: Chenopodium album; for pest or weed control at 62 g/ha: 62 g ai/ha; for pest or weed control at 125 g/ha: 125 g ai/ha; for pest or weed control at 250 g/ha: 250 g ai/ha; for pest or weed control at 500 g/ha: 500 g ai/ha
# From the text: as §1, §2
# [5] = test system: giant foxtail (Setaria faberii); details: Setaria faberi; for pest or weed control at 62 g/ha: 62 g ai/ha; for pest or weed control at 125 g/ha: 125 g ai/ha; for pest or weed control at 250 g/ha: 250 g ai/ha; for pest or weed control at 500 g/ha: 500 g ai/ha
# From the text: as §1, §2
# [6] = test system: galium (catchweed bedstraw, Galium aparine); details: Galium; for pest or weed control at 62 g/ha: 62 g ai/ha; for pest or weed control at 125 g/ha: 125 g ai/ha; for pest or weed control at 250 g/ha: 250 g ai/ha; for pest or weed control at 500 g/ha: 500 g ai/ha
# From the text: as §1, §2
# soybean (Glycine max) = details: Glycine max; for plant injury at 62 g/ha: 62 g ai/ha; for plant injury at 125 g/ha: 125 g ai/ha; for plant injury at 250 g/ha: 250 g ai/ha; for plant injury at 500 g/ha: 500 g ai/ha
# From the text: as §1, §2
# [7] = post-emergence, Postemergence, read-out: Plant response rating (0 to 100), Johnsongrass
# [8] = post-emergence, Postemergence, scale 0 to 100
# [9] = pre-emergence, Preemergence, read-out: Plant response rating, Johnsongrass
# [10] = post-emergence, Postemergence, read-out: Plant response rating (0 to 100), Nutsedge, Yellow
# [11] = pre-emergence, Preemergence, read-out: Plant response rating, Nutsedge, Yellow
# [12] = post-emergence, Postemergence, read-out: Plant response rating (0 to 100), Lambsquarters
# [13] = pre-emergence, Preemergence, read-out: Plant response rating, Lambsquarters
# [14] = post-emergence, Postemergence, read-out: Plant response rating (0 to 100), Foxtail, Giant
# [15] = pre-emergence, Preemergence, read-out: Plant response rating, Foxtail, Giant
# [16] = post-emergence, Postemergence, read-out: Plant response rating (0 to 100), Galium
# [17] = pre-emergence, Preemergence, read-out: Plant response rating, Galium
# [18] = post-emergence, Postemergence, read-out: Plant response rating (0 to 100), Soybean
# [19] = pre-emergence, Preemergence, read-out: Plant response rating, Soybean
structure (smiles),measurement,setting,value
"CCOC(OCC)(c1ccccc1)c1c[nH]nc1-c1cc(Cl)cc(Cl)c1 [Compound 14, 3-(3,5-dichlorophenyl)-4-(diethoxyphenylmethyl)-1H-pyrazole]",pest or weed control at 62 g/ha,"[1]; 62 g ai/ha, read-out: Plant response rating, Pigweed",98%
same,pest or weed control at 125 g/ha,"[1]; 125 g ai/ha, read-out: Plant response rating, Pigweed",100%
same,pest or weed control at 250 g/ha,[1]; 250 g ai/ha,100%
same,pest or weed control at 500 g/ha,[1]; 500 g ai/ha,100%
same,pest or weed control at 62 g/ha,[2]; [7],0%
same,pest or weed control at 125 g/ha,[2]; [7],0%
same,pest or weed control at 250 g/ha,[2]; [8],0%
same,pest or weed control at 500 g/ha,[2]; [8],0%
same,pest or weed control at 62 g/ha,[2]; [9],0%
same,pest or weed control at 125 g/ha,[2]; [9],0%
same,pest or weed control at 250 g/ha,"[2]; pre-emergence, Preemergence",0%
same,pest or weed control at 500 g/ha,"[2]; pre-emergence, Preemergence",0%
same,pest or weed control at 62 g/ha,[3]; [10],0%
same,pest or weed control at 125 g/ha,[3]; [10],0%
same,pest or weed control at 250 g/ha,[3]; [8],0%
same,pest or weed control at 500 g/ha,[3]; [8],0%
same,pest or weed control at 62 g/ha,[3]; [11],0%
same,pest or weed control at 125 g/ha,[3]; [11],0%
same,pest or weed control at 250 g/ha,"[3]; pre-emergence, Preemergence",0%
same,pest or weed control at 500 g/ha,"[3]; pre-emergence, Preemergence",0%
same,pest or weed control at 62 g/ha,[4]; [12],70%
same,pest or weed control at 125 g/ha,[4]; [12],95%
same,pest or weed control at 250 g/ha,[4]; [8],100%
same,pest or weed control at 500 g/ha,[4]; [8],100%
same,pest or weed control at 62 g/ha,[4]; [13],100%
same,pest or weed control at 125 g/ha,[4]; [13],100%
same,pest or weed control at 250 g/ha,"[4]; pre-emergence, Preemergence",100%
same,pest or weed control at 500 g/ha,"[4]; pre-emergence, Preemergence",100%
same,pest or weed control at 62 g/ha,[5]; [14],0%
same,pest or weed control at 125 g/ha,[5]; [14],0%
same,pest or weed control at 250 g/ha,[5]; [8],0%
same,pest or weed control at 500 g/ha,[5]; [8],0%
same,pest or weed control at 62 g/ha,[5]; [15],0%
same,pest or weed control at 125 g/ha,[5]; [15],0%
same,pest or weed control at 250 g/ha,"[5]; pre-emergence, Preemergence",0%
same,pest or weed control at 500 g/ha,"[5]; pre-emergence, Preemergence",0%
same,pest or weed control at 62 g/ha,[6]; [16],0%
same,pest or weed control at 125 g/ha,[6]; [16],30%
same,pest or weed control at 250 g/ha,[6]; [8],50%
same,pest or weed control at 500 g/ha,[6]; [8],45%
same,pest or weed control at 62 g/ha,[6]; [17],0%
same,pest or weed control at 125 g/ha,[6]; [17],60%
same,pest or weed control at 250 g/ha,"[6]; pre-emergence, Preemergence",80%
same,pest or weed control at 500 g/ha,"[6]; pre-emergence, Preemergence",0%
same,plant injury at 62 g/ha,soybean (Glycine max); [18],0%
same,plant injury at 125 g/ha,soybean (Glycine max); [18],0%
same,plant injury at 250 g/ha,soybean (Glycine max); [8],0%
same,plant injury at 500 g/ha,soybean (Glycine max); [8],0%
same,plant injury at 62 g/ha,soybean (Glycine max); [19],0%
same,plant injury at 125 g/ha,soybean (Glycine max); [19],35%
same,plant injury at 250 g/ha,"soybean (Glycine max); pre-emergence, Preemergence",40%
same,plant injury at 500 g/ha,"soybean (Glycine max); pre-emergence, Preemergence",10%
